This is an account of results in patent publication US9969677B2, “Histone acetyltransferase modulators and uses thereof” (THE TRUSTEES OF COLUMBIA UNIVERSITY IN THE CITY OF NEW YORK, priority 2010, dated 2018).

For data set [1] the following is noted: cited from earlier work.
The conditions of data set [2]: cited from earlier work. The source holds these as a separate data set.
A further data set addresses T1, p300 (Homo sapiens, UniProt Q09472).
T1 construct: the catalytic domain of human CBP, PCAF, p300 and GCN5 (Enzo Life Sci., USA) can be used; purchased Enzo Life Sciences
T1 sequence (Q09472 1287-1663 limits assumed): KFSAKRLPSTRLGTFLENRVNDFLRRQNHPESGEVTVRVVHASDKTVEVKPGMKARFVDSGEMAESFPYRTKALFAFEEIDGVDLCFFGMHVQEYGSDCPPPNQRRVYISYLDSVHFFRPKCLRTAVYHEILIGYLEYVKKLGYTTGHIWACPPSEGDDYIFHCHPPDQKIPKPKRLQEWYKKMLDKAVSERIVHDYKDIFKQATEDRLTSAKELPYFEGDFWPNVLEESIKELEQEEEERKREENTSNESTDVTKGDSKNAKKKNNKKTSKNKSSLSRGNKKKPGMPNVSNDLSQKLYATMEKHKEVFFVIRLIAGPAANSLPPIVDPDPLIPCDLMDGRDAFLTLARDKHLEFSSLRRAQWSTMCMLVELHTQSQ
In words: acetyltransferase activity assay (Enzo Life Sciences), P300. In kind it is biochemical. Conditions: for EC50: Table 1, activation of P300 according to b440. Here is the method:
(§1) Commercial human HATs (CBP, p300, GCN5, PCAF (Enzo Life Sciences), and Tip60 (SignalChem)) were assayed in an acetyltransferase activity assay (Enzo Life Sciences, Cat. No. ADI-907-026). Each well contained, in addition to a HAT, histone 3 as the acetyl acceptor, acetyl-CoA as the acetyl donor in the reaction mixture and compounds (1% DMSO) at the appropriate concentrations. The reaction was carried out at room temperature. Enzyme activity was measured by monitoring the breakage of the substrate acetyl-CoA by HAT using a proprietary detection mixture. The fluorescent signal was measured using a Tecan microplate reader (excitation: 380 nm, emission: 520 nm). The assay methodology was adopted as it provided a 10-fold higher signal/background ratio and was more sensitive than other assays. […] Compound 10 had no effect with either P300 or CBP (FIG. 13).

The next data set concerns the target T2, CBP (Homo sapiens, UniProt Q92793).
T2 construct: the catalytic domain of human CBP, PCAF, p300 and GCN5 (Enzo Life Sci., USA) can be used; purchased Enzo Life Sciences
Kind of data set: acetyltransferase activity assay (Enzo Life Sciences), CBP. It counts as biochemical. Here is the method: as §1

The subject of data set [3] is Aβ-induced reduction of LTP. Kind of data set: rescue of Aβ-induced reduction of LTP. An excerpt: Synaptic dysfunction is a major hallmark of AD (Histol Histopathol, 1995. 10(2): p. 509-19; herein incorporated by reference in its entirety). An aspect of the drug screening protocol can include a measurement of the effect of compounds onto synaptic function. The APP/PS1 mouse presents an impairment of LTP by the age of 3 months (Ann Neurol, 2004. 55(6): p. 801-14; herein incorporated by reference in its entirety), and therefore permits a relatively fast assessment of synaptic function without waiting a long time for mice aging. LTP can be examined because it is a type of synaptic plasticity thought to underlie learning and memory. D rescues the Aβ-induced reduction of LTP, and other compounds can also be screened to identify those that can re-establish normal LTP. The compounds can be applied for 30 min. Controls can be performed on slices from APP/PS1 mice treated with vehicle, and WT mice treated with compound or vehicle. If the compounds re-establish normal LTP in APP/PS1 slices, one can conclude that the compounds rescue impairment of synaptic plasticity in APP/PS1 mice. Cognitive impairment can also be investigated (see Example 5).

The conditions of data set [4]: in vivo; cited from earlier work.
The conditions of data set [5]: cited from earlier work. This is another data set of the same source.
A further data set concerns histone acetylation. Conditions: cited from earlier work.
The target in another data set is T3, Tip60 (Homo sapiens, UniProt Q92993).
T3 construct: purchased SignalChem
T3 sequence (Q92993 whole entry): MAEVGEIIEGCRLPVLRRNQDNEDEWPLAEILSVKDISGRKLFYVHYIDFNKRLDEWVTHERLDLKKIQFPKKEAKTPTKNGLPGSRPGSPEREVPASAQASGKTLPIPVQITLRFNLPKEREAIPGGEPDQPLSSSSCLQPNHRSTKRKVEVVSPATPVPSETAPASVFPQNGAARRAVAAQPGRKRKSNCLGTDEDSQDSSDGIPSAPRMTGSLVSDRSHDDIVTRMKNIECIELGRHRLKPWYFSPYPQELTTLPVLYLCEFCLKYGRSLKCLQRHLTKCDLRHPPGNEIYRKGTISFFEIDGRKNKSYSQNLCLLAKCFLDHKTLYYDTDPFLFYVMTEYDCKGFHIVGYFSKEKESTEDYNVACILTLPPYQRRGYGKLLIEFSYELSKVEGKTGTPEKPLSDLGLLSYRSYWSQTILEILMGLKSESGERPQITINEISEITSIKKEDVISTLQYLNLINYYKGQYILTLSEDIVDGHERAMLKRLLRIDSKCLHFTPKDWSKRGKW
Kind of data set: acetyltransferase activity assay (Enzo Life Sciences), Tip60. In kind it is biochemical. Conditions: histone 3 acetyl acceptor, acetyl-CoA, room temperature. The procedure: as §1

Data set [6] deals with PC12 cells, sympathetic neurons and hippocampal neurons. The note with it: cited from earlier work.
The subject of data set [7] is APP/PS1 mouse. Conditions: APP/PS1 double transgenic mouse; cited from earlier work.
The subject of data set [8] is APP/PS1 mouse. The note with it: APP/PS1 double transgenic mouse; cited from earlier work. The source holds these as a separate data set.
For data set [9] the following is noted: in vivo; cited from earlier work. The source holds these as a separate data set.

T2 sequence (Q92793 1323-1700 limits assumed): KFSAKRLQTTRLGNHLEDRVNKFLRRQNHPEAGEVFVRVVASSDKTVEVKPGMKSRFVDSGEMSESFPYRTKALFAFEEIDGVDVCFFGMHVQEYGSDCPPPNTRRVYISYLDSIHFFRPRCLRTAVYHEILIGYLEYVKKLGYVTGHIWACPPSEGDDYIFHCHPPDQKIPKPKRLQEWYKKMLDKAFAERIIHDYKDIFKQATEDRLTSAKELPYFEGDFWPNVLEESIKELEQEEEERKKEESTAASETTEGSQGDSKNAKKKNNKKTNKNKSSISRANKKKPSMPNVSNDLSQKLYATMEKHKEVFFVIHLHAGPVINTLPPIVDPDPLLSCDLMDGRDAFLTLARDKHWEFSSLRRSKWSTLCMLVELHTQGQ

Turning to `CCOc1ccccc1C(=O)Nc1ccc(Cl)c(C(F)(F)F)c1` [CTB], the membrane permeability result in data set [1] is listed as “membrane-impermeable”. In addition, the solubility entry in data set [2] is “insoluble”. Consider `CCCCCCCCCCCCCCCc1cccc(OCC)c1C(=O)Nc1ccc(Cl)c(C(F)(F)F)c1` [CTPB], for which the membrane permeability result in data set [1] is on record as “membrane-impermeable”. Further, the solubility result in data set [2] was “insoluble”. Regarding `CCOc1cccc(OCCN2CCCCC2)c1C(=O)Nc1ccc(Cl)c(C(F)(F)F)c1` [Compound 8, N-[4-chloro-3-(trifluoromethyl)phenyl]-2-ethoxy-6-[2-(piperidin-1-yl)ethoxy] benzamide], the EC50 (usually the concentration at which the effect is half-maximal) on p300 was determined as 2.75 nM. Take `CCOc1cccc(OCCN2CCOCC2)c1C(=O)Nc1ccc(Cl)c(C(F)(F)F)c1` [Compound 9, N-[4-chloro-3-(trifluoromethyl)phenyl]-2-ethoxy-6-(2-morpholinoethoxy) benzamide]: at p300, a half-maximal response (EC50) required 2.07 nM.

Take `CCOc1cccc(OCCN2CCNCC2)c1C(=O)Nc1ccc(Cl)c(C(F)(F)F)c1` [Compound 10, N-[4-chloro-3-(trifluoromethyl)phenyl]-2-ethoxy-6-[2-(piperazin-1-yl)ethoxy]benzamide]: the “effect on CBP, initial screening (FIG. 13)” value (from here on “effect on CBP”) at CBP is “no effect”. Besides, at p300, a half-maximal response (EC50) required 2.1 nM and the “effect on P300, initial screening (FIG. 13)” value was “no effect”.

Turning to `CCOc1cccc(OCCN2CCN(C)CC2)c1C(=O)Nc1ccc(Cl)c(C(F)(F)F)c1` [Compound 11, N-[4-chloro-3-(trifluoromethyl)phenyl]-2-ethoxy-6-[2-(4-methylpiperazin-1-yl)ethoxy]benzamide], at CBP, the “effect on CBP” value is listed as “no effect”. For the same compound, on p300, the EC50 came to 2.28 nM and the “effect on P300, initial screening (FIG. 13)” value is given as “inhibited”.

Consider `CCOc1cccc(OCCN(CC)CC)c1C(=O)Nc1ccc(Cl)c(C(F)(F)F)c1` [Compound 12, N-(4-chloro-3-(trifluoromethyl)phenyl)-2-(2-(diethylamino)ethoxy)-6-ethoxybenzamide], for which the midpoint of the response at p300, the EC50, lay at 1.47 nM. On to `CCOc1cccc(OCCCN(C)C)c1C(=O)Nc1ccc(Cl)c(C(F)(F)F)c1` [Compound 13, N-[4-chloro-3-(trifluoromethyl)phenyl]-2-[3-(dimethylamino)propoxy]-6-ethoxybenzamide], for which a half-maximal effect on p300 (EC50) was put at 1.32 nM.

As for `CCOc1cccc(OCCN(C)C)c1C(=O)NCc1ccc(Cl)c(C(F)(F)F)c1` [Compound 16, N-[4-chloro-3-(trifluoromethyl)benzyl]-2-(2-(dimethylamino)ethoxy)-6-ethoxybenzamide], the “effect on CBP” value at CBP is “activated only CBP”. In addition, at p300, a half-maximal effect (EC50) was put at 1.84 nM. Turning to `CCOc1cccc(OCCN(C)C)c1/C=N/c1ccc(Cl)c(C(F)(F)F)c1` [Compound 17, 4-chloro-N-[2-(2-(dimethylamino)ethoxy)-6-ethoxybenzylidene]-3-(trifluoromethyl)aniline], the “effect on CBP” value on CBP was “activated only CBP”. On to `CCOc1ccc(OCCN(C)C)c(C(=O)Nc2ccc(Cl)c(C(F)(F)F)c2)c1` [Compound 18, N-(4-chloro-3-(trifluoromethyl)phenyl)-2-(2-(dimethylamino)ethoxy)-5-ethoxybenzamide], for which the “effect on CBP” value at CBP is given as “activated only CBP”. The compound also had an EC50 on p300 of 2.3 nM. Consider `CCOc1ccc(C(=O)Nc2ccc(Cl)c(C(F)(F)F)c2)c(OCCN(C)C)c1` [Compound 19, N-(4-chloro-3-(trifluoromethyl)phenyl)-2-(2-(dimethylamino)ethoxy)-4-ethoxybenzamide], for which a half-maximal response at p300 (EC50) required 1.85 nM.

As to `CCOc1cccc(O)c1C(=O)Nc1ccc(Cl)c(C(F)(F)F)c1` [Compound 25, N-[4-chloro-3-(trifluoromethyl)phenyl]-2-ethoxy-6-hydroxybenzamide], on CBP, the “effect on CBP” value was “activated only CBP”.

In the case of `CCOc1cccc(O)c1CNc1ccc(Cl)c(C(F)(F)F)c1` [Compound 26, 2-[((4-chloro-3-(trifluoromethyl)phenyl)amino)methyl]-3-ethoxyphenol], the “effect on CBP” value at CBP is on record as “activated only CBP”. In the case of `CCOc1cccc(OCCN(C)C)c1C(=O)Nc1ccc(Cl)c(C(F)(F)F)c1` [Compound D, N-[4-chloro-3-(trifluoromethyl)phenyl]-2-[2-(dimethyl-amino)ethoxy]-6-ethoxybenzamide], the concentration for a half-maximal effect (EC50) at CBP (histone 3 acetyl acceptor, acetyl-CoA, room temperature) was 4.5 nM; on p300, 3.81 nM; at Tip60 it was over 200000 nM. Moreover, the “Aβ-induced reduction of LTP” value in data set [3] is on record as “rescues”. The “safety in acute toxicity tests” value in [4] is “safe”. The BBB permeability result in [5] is “BBB permeant”. For the same compound, the histone acetylation entry in the data set with histone acetylation was “increases histone acetylation”. In data set [1], the membrane permeability result is reported as “membrane permeable”. Also, in [2], the solubility entry is listed as “soluble”. For the compound `CC(C)(SN=O)[C@H](N)C(=O)O` [S-nitroso penicillamine], the “protection against Aβ-induced neurotoxicity” value in data set [6] is on record as “exerts a neuroprotective effect”.

Take `CC(/C=C/C(=O)NO)=C\[C@@H](C)C(=O)c1ccc(N(C)C)cc1` [TSA]: in the data set with APP/PS1 mouse [7], the LTP result was “ameliorates”. Further, in the data set with APP/PS1 mouse [8], the “contextual fear conditioning (FC) / contextual learning” value is recorded as “ameliorates”.

In the case of `Cc1cc(-c2ccccc2)nnc1NCCN1CCOCC1` [minaprine], the brain/blood ratio in data set [9] is over 2. In the case of `COc1ccc(C2CNC(=O)C2)cc1OC1CCCC1` (stereo not shown) [rolipram], in the data set on APP/PS1 mouse [7], the LTP entry is “ameliorates deficits”. For the same compound, the “contextual fear conditioning (FC) / contextual learning” value in the data set on APP/PS1 mouse [8] was “ameliorates deficits”.
